Results published in ChEMBL document CHEMBL3885861, “Open TG-GATES”.

Species: Rattus norvegicus
Test: Open TG-GATES - Regimen: Daily Repeat
Type: toxicity, organism-based, Sprague-Dawley
Parameters: regimen Daily Repeat, gender Male, age 6 weeks
Details: in vivo, po, 0 mg/kg, route gavage, dose level Control; for APTT / Bas / Eos / Fbg / Hb / Ht / Lym / MCH / MCHC / MCV / Mono / Neu / PT / Plat / RBC / Ret / WBC: tissue Blood; for KIDNEY_L / KIDNEY_R / KIDNEY_TOTAL: tissue Kidney; for LIVER: tissue Liver; for A/G / ALP / ALT / AST / BUN / CRE / Ca / Cl / DBIL / GLC / IP / K / LDH / Na / PL / RALB / TBIL / TC / TG / TP / gamma-GTP: tissue Plasma

Work on `CCCc1cc(=O)[nH]c(=S)[nH]1` [PROPYLTHIOURACIL] yielded a TERMINAL_BW (72 h, time 3 day) of 207.9 g, an APTT (72 h, time 3 day) of 16.3 s and a Bas (72 h, time 3 day) of 0%. For the same compound, the Eos (72 h, time 3 day) was 0.8%, the Fbg (72 h, time 3 day) was 235 mg/dL and the Hb (72 h, time 3 day) was 13.5 g/dL. The Ht (72 h, time 3 day) was 40.7%, the Lym (72 h, time 3 day) was 73.4% and the MCH (72 h, time 3 day) was 21.7 pg. For the same compound, the MCHC (72 h, time 3 day) was 33.2%, the MCV (72 h, time 3 day) was 65.5 fL and the Mono (72 h, time 3 day) was 8.4%. The Neu (72 h, time 3 day) was 17.4%, the PT (72 h, time 3 day) was 12 s and the Plat (72 h, time 3 day) was 113.1 x10_4/uL. For the same compound, the RBC (72 h, time 3 day) was 622 x10_4/ul, the Ret (72 h, time 3 day) was 7.6% and the WBC (72 h, time 3 day) was 141.8 x10_2/uL. For the same compound, the KIDNEY_L (72 h, time 3 day) was 0.9 g, the KIDNEY_R (72 h, time 3 day) was 1 g and the KIDNEY_TOTAL (72 h, time 3 day) was 1.9 g. For the same compound, the LIVER (72 h, time 3 day) was 10.1 g, the A/G (72 h, time 3 day) was 1.9 and the ALP (72 h, time 3 day) was 904.6 IU/L. The ALT (72 h, time 3 day) was 38.6 IU/L, the AST (72 h, time 3 day) was 65.4 IU/L and the BUN (72 h, time 3 day) was 20.6 mg/dL. It also gave a CRE (72 h, time 3 day) of 0.5 mg/dL, a Ca (72 h, time 3 day) of 11.5 mg/dL and a Cl (72 h, time 3 day) of 103.4 meq/L. For the same compound, the DBIL (72 h, time 3 day) was 0.022 mg/dL, the GLC (72 h, time 3 day) was 192.8 mg/dL and the IP (72 h, time 3 day) was 8.7 mg/dL. It also gave a K (72 h, time 3 day) of 5 meq/L, an LDH (72 h, time 3 day) of 90.6 IU/L and a Na (72 h, time 3 day) of 137.4 meq/L. The PL (72 h, time 3 day) was 160.8 mg/dL, the RALB (72 h, time 3 day) was 3.9 g/dL and the TBIL (72 h, time 3 day) was 0.3 mg/dL. The TC (72 h, time 3 day) was 85.6 mg/dL, the TG (72 h, time 3 day) was 98.8 mg/dL and the TP (72 h, time 3 day) was 6 g/dL. It also gave a gamma-GTP (72 h, time 3 day) of 2 IU/L, a TERMINAL_BW ([…], time 7 day) of 242.6 g and a TERMINAL_BW ([…], time 14 day) of 275 g. It also gave a TERMINAL_BW ([…], time 28 day) of 364.4 g, an APTT ([…], time 7 day) of 16 s and a Bas ([…], time 7 day) of 0%. It also gave an Eos ([…], time 7 day) of 0.8%, a Fbg ([…], time 7 day) of 232.4 mg/dL and a Hb ([…], time 7 day) of 13.8 g/dL. It also gave a Ht ([…], time 7 day) of 41%, a Lym ([…], time 7 day) of 77.8% and an MCH ([…], time 7 day) of 21.4 pg. For the same compound, the MCHC ([…], time 7 day) was 33.6%, the MCV ([…], time 7 day) was 63.6 fL and the Mono ([…], time 7 day) was 5.6%. For the same compound, the Neu ([…], time 7 day) was 15.8%, the PT ([…], time 7 day) was 12 s and the Plat ([…], time 7 day) was 105.3 x10_4/uL. It also gave an RBC ([…], time 7 day) of 643.8 x10_4/ul, a Ret ([…], time 7 day) of 6.7% and a WBC ([…], time 7 day) of 127.9 x10_2/uL. The APTT ([…], time 14 day) was 16.2 s, the Bas ([…], time 14 day) was 0% and the Eos ([…], time 14 day) was 0.2%. For the same compound, the Fbg ([…], time 14 day) was 220.4 mg/dL, the Hb ([…], time 14 day) was 14.7 g/dL and the Ht ([…], time 14 day) was 43.9%. It also gave a Lym ([…], time 14 day) of 80.8%, an MCH ([…], time 14 day) of 21 pg and an MCHC ([…], time 14 day) of 33.4%. For the same compound, the MCV ([…], time 14 day) was 63 fL, the Mono ([…], time 14 day) was 4% and the Neu ([…], time 14 day) was 15%. It also gave a PT ([…], time 14 day) of 12.1 s, a Plat ([…], time 14 day) of 105.2 x10_4/uL and an RBC ([…], time 14 day) of 697.6 x10_4/ul. It also gave a Ret ([…], time 14 day) of 5%, a WBC ([…], time 14 day) of 125.5 x10_2/uL and an APTT ([…], time 28 day) of 16.6 s. For the same compound, the Bas ([…], time 28 day) was 0%, the Eos ([…], time 28 day) was 0.6% and the Fbg ([…], time 28 day) was 223.8 mg/dL. The Hb ([…], time 28 day) was 15.3 g/dL, the Ht ([…], time 28 day) was 45.9% and the Lym ([…], time 28 day) was 86.8%. For the same compound, the MCH ([…], time 28 day) was 19.5 pg, the MCHC ([…], time 28 day) was 33.4% and the MCV ([…], time 28 day) was 58.4 fL. It also gave a Mono ([…], time 28 day) of 3.8%, a Neu ([…], time 28 day) of 8.8% and a PT ([…], time 28 day) of 12.1 s. For the same compound, the Plat ([…], time 28 day) was 105.4 x10_4/uL, the RBC ([…], time 28 day) was 786.4 x10_4/ul and the Ret ([…], time 28 day) was 2.8%. For the same compound, the WBC ([…], time 28 day) was 95.2 x10_2/uL, the KIDNEY_L ([…], time 7 day) was 1.1 g and the KIDNEY_R ([…], time 7 day) was 1.1 g. It also gave a KIDNEY_TOTAL ([…], time 7 day) of 2.1 g, a KIDNEY_L ([…], time 14 day) of 1.1 g and a KIDNEY_R ([…], time 14 day) of 1.1 g. For the same compound, the KIDNEY_TOTAL ([…], time 14 day) was 2.2 g, the KIDNEY_L ([…], time 28 day) was 1.3 g and the KIDNEY_R ([…], time 28 day) was 1.3 g. The KIDNEY_TOTAL ([…], time 28 day) was 2.6 g, the LIVER ([…], time 7 day) was 11.7 g and the LIVER ([…], time 14 day) was 12.2 g. It also gave an LIVER ([…], time 28 day) of 15.2 g, an A/G ([…], time 7 day) of 1.8 and an ALP ([…], time 7 day) of 1082.6 IU/L. It also gave an ALT ([…], time 7 day) of 34.2 IU/L, an AST ([…], time 7 day) of 67.4 IU/L and a BUN ([…], time 7 day) of 20.8 mg/dL. The CRE ([…], time 7 day) was 0.5 mg/dL, the Ca ([…], time 7 day) was 11.5 mg/dL and the Cl ([…], time 7 day) was 106.2 meq/L. The DBIL ([…], time 7 day) was 0.016 mg/dL, the GLC ([…], time 7 day) was 180 mg/dL and the IP ([…], time 7 day) was 8 mg/dL. The K ([…], time 7 day) was 5.2 meq/L, the LDH ([…], time 7 day) was 95.6 IU/L and the Na ([…], time 7 day) was 139 meq/L. It also gave a PL ([…], time 7 day) of 158.4 mg/dL, an RALB ([…], time 7 day) of 3.9 g/dL and a TBIL ([…], time 7 day) of 0.4 mg/dL. The TC ([…], time 7 day) was 77 mg/dL, the TG ([…], time 7 day) was 127 mg/dL and the TP ([…], time 7 day) was 6.1 g/dL. The gamma-GTP ([…], time 7 day) was 1.8 IU/L, the A/G ([…], time 14 day) was 1.8 and the ALP ([…], time 14 day) was 719.8 IU/L. It also gave an ALT ([…], time 14 day) of 30 IU/L, an AST ([…], time 14 day) of 59.4 IU/L and a BUN ([…], time 14 day) of 18.8 mg/dL. It also gave a CRE ([…], time 14 day) of 0.7 mg/dL, a Ca ([…], time 14 day) of 11 mg/dL and a Cl ([…], time 14 day) of 107.4 meq/L. For the same compound, the DBIL ([…], time 14 day) was 0.006 mg/dL, the GLC ([…], time 14 day) was 183.6 mg/dL and the IP ([…], time 14 day) was 8.1 mg/dL. The K ([…], time 14 day) was 4.4 meq/L, the LDH ([…], time 14 day) was 87.4 IU/L and the Na ([…], time 14 day) was 140.8 meq/L. For the same compound, the PL ([…], time 14 day) was 150.4 mg/dL, the RALB ([…], time 14 day) was 3.9 g/dL and the TBIL ([…], time 14 day) was 0.3 mg/dL. It also gave a TC ([…], time 14 day) of 69.4 mg/dL, a TG ([…], time 14 day) of 111.2 mg/dL and a TP ([…], time 14 day) of 6.1 g/dL. It also gave a gamma-GTP ([…], time 14 day) of 0.8 IU/L, an A/G ([…], time 28 day) of 1.8 and an ALP ([…], time 28 day) of 612.6 IU/L. The ALT ([…], time 28 day) was 27 IU/L, the AST ([…], time 28 day) was 59.8 IU/L and the BUN ([…], time 28 day) was 20.6 mg/dL. It also gave a CRE ([…], time 28 day) of 0.7 mg/dL, a Ca ([…], time 28 day) of 10.8 mg/dL and a Cl ([…], time 28 day) of 106.8 meq/L. It also gave a DBIL ([…], time 28 day) of 0.012 mg/dL, a GLC ([…], time 28 day) of 169.4 mg/dL and an IP ([…], time 28 day) of 6.7 mg/dL. It also gave a K ([…], time 28 day) of 4.5 meq/L, an LDH ([…], time 28 day) of 84 IU/L and a Na ([…], time 28 day) of 139.8 meq/L. For the same compound, the PL ([…], time 28 day) was 161.6 mg/dL, the RALB ([…], time 28 day) was 4 g/dL and the TBIL ([…], time 28 day) was 0.2 mg/dL. For the same compound, the TC ([…], time 28 day) was 76.6 mg/dL, the TG ([…], time 28 day) was 153.8 mg/dL and the TP ([…], time 28 day) was 6.3 g/dL. The gamma-GTP ([…], time 28 day) was 1.6 IU/L.
